From patent publication US20250197408A1, “CRYSTALLINE FORMS AND SALTS OF A PI3K INHIBITOR AND METHODS OF MAKING AND METHODS OF USE THEREOF” (Totus Medicines Inc., priority 2022, published 2025)
In brackets after ≈: the same amount, converted by molar mass.

Key:
[1] = Dynamic vapor sorption (DVS) analysis at 25° C.; assay type: physicochemical
Procedure: In one embodiment, the crystalline forms are characterized by Dynamic Vapor Sorption (DVS). The DVS profile is typically expressed by a diagram plotting the sample relative humidity (RH) versus the change in mass (%). The DVS profile provides information on hygroscopicity of the crystalline form at different RH conditions.
A DVS (dynamic vapor sorption) analysis at 25° C. was carried out on Form A** of Compound I benzenesulfonate salt as shown in FIG. 3D.

[2] = Solubility in 7 aqueous pH buffers and bio-relevant fluids at 37° C. (HPLC of supernatant; residual solids by XRPD); assay type: physicochemical; details: for solubility at 2 h / solubility at 24 h: thermodynamic from solid
Procedure: 20 mg of the free base Form A of Compound I was weighed into a 20 mL glass vial. Amounts of the salts equivalent to 20 mg anhydrous free base were weighed into a glass vial. 10 mL of solubility medium was added. The resulting suspensions/solutions were stirred at 37° C. at 400 rpm and sampled at 2 hours and at 24 hours, respectively. The samples were centrifuged at 37° C. at 14,000 rpm for 5 min. Supernatants were analyzed by HPLC and pH meter for solubility and pH value, respectively. Residual solids (wet cakes) from the 24 hours samples were also characterized by XRPD to determine physical form.
Residual solids after the solubility test were analyzed by XRPD.

[3] = ES1, pH 1.2 HCl solution (0.1N), 37° C.
[4] = ES2, pH 4.5 acetate buffer (50 mM), 37° C.
[5] = ES3, pH 6.8 phosphate buffer (50 mM), 37° C.
[6] = ES4, pH 7.4 phosphate buffer (50 mM), 37° C.
[7] = aqueous buffer, ES2, pH 4.5 acetate buffer (50 mM), 37° C.
[8] = aqueous buffer, ES3, pH 6.8 phosphate buffer (50 mM), 37° C.
[9] = aqueous buffer, ES4, pH 7.4 phosphate buffer (50 mM), 37° C.
[10] = simulated gastric fluid, ES1, pH 1.2 HCl solution (0.1N), 37° C.
[11] = simulated gastric fluid, ES5, SGF, pH 2.0, 37° C.

Compound	hygroscopicity / water sorption behavior (DVS) [1]	solid form of the sample after the DVS test [1]	water uptake (DVS) ([1]; from 40% to 95% RH)	pH of supernatant, solubility for 2 h (pH) [2, 3]	pH of supernatant, solubility for 24 h (pH) [2, 3]	pH of supernatant, solubility for 2 h (pH) [2, 4]	pH of supernatant, solubility for 24 h (pH) [2, 4]	pH of supernatant, solubility for 2 h (pH) [2, 5]	pH of supernatant, solubility for 24 h (pH) [2, 5]	pH of supernatant, solubility for 2 h (pH) [2, 6]	pH of supernatant, solubility for 24 h (pH) [2, 6]	pH of supernatant, solubility for 2 h (pH) ([2]; ES5, SGF, pH 2.0, 37° C.)	pH of supernatant, solubility for 24 h (pH) ([2]; ES5, SGF, pH 2.0, 37° C.)	pH of supernatant, solubility for 2 h (pH) ([2]; ES6, FaSSIF-v1, pH 6.5, 37° C.)	pH of supernatant, solubility for 24 h (pH) ([2]; ES6, FaSSIF-v1, pH 6.5, 37° C.)	pH of supernatant, solubility for 2 h (pH) ([2]; ES7, FeSSIF-v1, pH 5.0, 37° C.)	pH of supernatant, solubility for 24 h (pH) ([2]; ES7, FeSSIF-v1, pH 5.0, 37° C.)	Solubility for 2 h [2, 3] [µg/mL]	Solubility for 24 h [2, 3] [µg/mL]	Solubility for 2 h [2, 4] [µg/mL]	other results
C=CC(=O)NCC(=O)N1CCN(Cc2cc3c(N4CCOCC4)nc(-c4cnc(NC(=O)OC)cc4C(F)(F)F)nn3c2)CC1 [Form A of Compound I, methyl (5-(6-((4-(acryloylglycyl)piperazin-1-yl)methyl)-4-morpholinopyrrolo[2,1-f][1,2,4]triazin-2-yl)-4-(trifluoromethyl)pyridin-2-yl) carbamate]	slightly hygroscopic	still the free base Pattern A	about 1.4%	(1.2)	(1.0)	(4.5)	(4.4)	(6.8)	(6.7)	(7.5)	(7.4)	(2.0)	(1.9)	(6.5)	(6.5)	(5.0)	(5.0)	–	–	–	solubility at 2 h [2, 7]: 200 µg/mL (≈ 317 µM); solubility at 24 h [2, 7]: 300 µg/mL (≈ 475 µM); solubility at 2 h [2, 8]: 2.9 µg/mL (≈ 4.59 µM); solubility at 24 h [2, 8]: 5.1 µg/mL (≈ 8.07 µM); solubility at 2 h [2, 9]: 2.2 µg/mL (≈ 3.48 µM); solubility at 24 h [2, 9]: 3.8 µg/mL (≈ 6.02 µM); solubility at 2 h [2, 10]: 1200 µg/mL (≈ 1900 µM); solubility at 24 h [2, 10]: 1000 µg/mL (≈ 1580 µM); solubility at 2 h [2, 11]: > 2000 µg/mL; solubility at 24 h [2, 11]: > 2000 µg/mL; solubility at 2 h ([2]; ES6, FaSSIF-v1, pH 6.5, 37° C.): 9.4 µg/mL (≈ 14.9 µM); solubility at 24 h ([2]; ES6, FaSSIF-v1, pH 6.5, 37° C.): 11.5 µg/mL (≈ 18.2 µM); solubility at 2 h ([2]; ES7, FeSSIF-v1, pH 5.0, 37° C.): 600 µg/mL (≈ 950 µM); solubility at 24 h ([2]; ES7, FeSSIF-v1, pH 5.0, 37° C.): 600 µg/mL (≈ 950 µM)
C=CC(=O)NCC(=O)N1CCN(Cc2cc3c(N4CCOCC4)nc(-c4cnc(NC(=O)OC)cc4C(F)(F)F)nn3c2)CC1.O=S(=O)(O)c1ccccc1 [Methyl (5-(6-((4-(acryloylglycyl)piperazin-1-yl)methyl)-4-morpholinopyrrolo[2,1-f][1,2,4]triazin-2-yl)-4-(trifluoromethyl)pyridin-2-yl) carbamate benzenesulfonate salt]	slightly hygroscopic	still the Form A** of Compound I benzenesulfonate salt	about 1.4%	(1.2)	(1.0)	(4.5)	(4.4)	(6.7)	(6.6)	(7.3)	(7.3)	(2.0)	(1.8)	(6.3)	(6.2)	(5.0)	(4.9)	300	400	200	solubility compared among forms ([2]; 37° C., 2 h and 24 h, 7 aqueous pH buffers and bio-relevant fluids): overall lower solubility than that of Form A of Compound I; Solubility for 24 h [2, 4]: 300 µg/mL; Solubility for 2 h [2, 5]: 8.5 µg/mL; Solubility for 24 h [2, 5]: 6.9 µg/mL; Solubility for 2 h [2, 6]: 5.7 µg/mL; Solubility for 24 h [2, 6]: 4.1 µg/mL; Solubility for 2 h ([2]; ES5, SGF, pH 2.0, 37° C.): 200 µg/mL; Solubility for 24 h ([2]; ES5, SGF, pH 2.0, 37° C.): 300 µg/mL; Solubility for 2 h ([2]; ES6, FaSSIF-v1, pH 6.5, 37° C.): 19.6 µg/mL; Solubility for 24 h ([2]; ES6, FaSSIF-v1, pH 6.5, 37° C.): 18.6 µg/mL; Solubility for 2 h ([2]; ES7, FeSSIF-v1, pH 5.0, 37° C.): 700 µg/mL; Solubility for 24 h ([2]; ES7, FeSSIF-v1, pH 5.0, 37° C.): 800 µg/mL
C=CC(=O)NCC(=O)N1CCN(Cc2cc3c(N4CCOCC4)nc(-c4cnc(NC(=O)OC)cc4C(F)(F)F)nn3c2)CC1.O=C(O)/C=C\C(=O)O [Form B* of Compound I maleate salt, Methyl (5-(6-((4-(acryloylglycyl)piperazin-1-yl)methyl)-4-morpholinopyrrolo[2,1-f][1,2,4]triazin-2-yl)-4-(trifluoromethyl)pyridin-2-yl) carbamate maleate salt]	nearly monotonic water sorption-desorption behavior depending on RH	still Form B* of Compound I maleate salt	–	(1.3)	(1.3)	(4.5)	(4.5)	(6.6)	(6.6)	(7.3)	(7.3)	(2.0)	(2.0)	(6.1)	(6.1)	(5.0)	(5.0)	1400	1500	>2000	water uptake (DVS) ([1]; from 40% to 90% RH): 2.7%; Solubility for 24 h [2, 4]: 300 µg/mL; Solubility for 2 h [2, 5]: 6.6 µg/mL; Solubility for 24 h [2, 5]: 4.7 µg/mL; Solubility for 2 h [2, 6]: 1.5 µg/mL; Solubility for 24 h [2, 6]: 1.4 µg/mL; Solubility for 2 h ([2]; ES5, SGF, pH 2.0, 37° C.): >2000 µg/mL; Solubility for 24 h ([2]; ES5, SGF, pH 2.0, 37° C.): >2000 µg/mL; Solubility for 2 h ([2]; ES6, FaSSIF-v1, pH 6.5, 37° C.): 22.9 µg/mL; Solubility for 24 h ([2]; ES6, FaSSIF-v1, pH 6.5, 37° C.): 16.2 µg/mL; Solubility for 2 h ([2]; ES7, FeSSIF-v1, pH 5.0, 37° C.): 1100 µg/mL; Solubility for 24 h ([2]; ES7, FeSSIF-v1, pH 5.0, 37° C.): 1000 µg/mL
